Results reported in patent US5278045A, “Method and compositions to screen compounds for enhancement of the cholinergic, dopaminergic and serotonergic function” (Du Pont Merck Pharmaceutical Company, priority 1990, dated 1994).
pIC50: −log10 of the molar value. Like-named read-outs stand apart in the source and are kept apart here. Where no end group is shown, it is not given here.

Key:
Parameters in all cases: species or system rat
DuP 996 binding protein [1] = assay: Specificity of the DuP 996 binding protein (displacement of tritiated DuP 996 by pharmacological standards)
DuP 996 binding protein [2] = assay: Radioreceptor screening assay (displacement of tritiated DuP 996); details: inhibition of binding of 10 nM tritiated DuP 996, pH 7.4, 25° C., 60 minutes
Method: Male Sprague-Dawley rats (Charles River Breeding Laboratories) at 200-250 g were euthanatized by decapitation. Rat brain regions were dissected according to Heffner et al., Pharmacol. Biochem. Behav., 13, 453 (1980). Brain membranes were prepared by the method of Tam, Proc. Natl. Acad. Sci. USA, 80, 6703 (1983). The brain tissues were homogenized (20 sec) in 10 vol (wt/vol) of ice-cold 0.32M sucrose with a Brinkman Polytron (setting 8). The homogenate was centrifuged at 920×g for 10 min at 4° C. The supernatant was centrifuged at 47,000×g for 20 min. The resulting membrane pellet was resuspended in 10 vol (original wt/vol) of 50 mM Tris-HCl (pH 7.4) and incubated at 37° C. for 30 min to degrade and dissociate bound endogenous ligands. The membranes were then centrifuged at 47,000×g for 20 min and resuspended in 50 mM Tris-HCl.
Compounds to be screened were incubated with brain membranes. (1-2 mg protein) in 50 mM Tris-HCl buffer, pH 7.4, for 10 minutes in 25° C. Then 10 nM tritiated DuP 996 or its active structural analogs were added and incubated at 25° C. for 60 minutes. The samples were filtered on Whatman GF/B glass filters which had been soaked in 0.2% polyethylenimine and washed 3 times each with 5 ml of ice-cold Tris buffer. Nonspecific binding was determined by performing binding in the presence of 10 μM DuP 996. The control represents specific binding in the absence of compounds to be screened. Screened compounds which inhibited the specific binding of tritiated DuP 996 or analogs to its binding protein should be active in binding to the same protein. This is illustrated further in Example 4, Part B.

ACh release = assay: Neurotransmitter release assay: stimulated ACh release from brain slices; details: concentration to enhance stimulated release of ACh by 100% (2-fold) over control, from dose response curves
Method: Male Wistar rats weighing 175-200 g were euthanatized and the brains were dissected out immediately. Slices (0.3 mm thick) from the parietal cortex were prepared manually by using a recessed Lucite® guide. Slices (1.5 mm thick) from the hippocampus and the caudate nucleus were prepared by using a slotted brain holder. All slices were subsequently cut into 0.25×0.25 mm squares with a McIlwain tissue chopper.
Labeling of transmitter stores in slices was prepared by the following methods. For ACh release, slices (approximately 100 mg wet weight) were incubated in 10 ml Krebs-Ringer (KR) medium containing (mM): NaCl(116), KCl(3), CaCl2 (1.3), MgCl2 (1.2), KH2 PO4 (1.2), Na2 SO4 (1.2), NaHCO3 (25) and glucose(11), to which 10 μCi ^3 H-choline (specific activity approx. 80 Ci/mmol: NEN) and 10 nmol unlabeled choline had been added to give a final concentration of 10^-6 M. Incubation was carried out for 30 min at 37° C. under a steady flow of 95% O2 /5% CO2. Under these conditions, part of the radioactive choline taken up is converted into radioactive ACh by cholinergic nerve endings, stored in synaptic vesicles, and released upon depolarization by high-K^+ -containing medium [Molenaar et al., 1973a]. For dopamine (DA), serotonin (5-HT), and norepinephrine (NE) release, slices (approximately 100 mg wet weight) were incubated in KR medium containing 0.01 mM nialamide at 37° C. under a steady flow of 95% O2 /5% CO2. The MAO-inhibitor nialamide was added to the medium in order to inhibit metabolism to the monoamines. Incubation was for 30 min in 10 ml of KR medium to which 10 μCi ^3 H-dopamine, ^3 H-norepinephrine, or ^3 H-5-hydroxytryptamine (specific activity 30, 45, and 78 Ci/mmol, respectively: all from NEN) had been added.
Separate experiments were performed for the release of each neurotransmitter. After labeling of the transmitter stores, the slices were washed three times with non-radioactive KR medium and transferred to a superfusion apparatus to measure the drug effects on transmitter release [Schoemaker et al., Psychopharmacology 74, 137 (1981)]. The superfusion apparatus consisted of 10 thermo-jacketed glass columns of 5 mm diameter which were provided with GF/F glass fiber filters to support the brain slices (approximately 10 mg tissue/column). Superfusion was carried out with KR medium at a rate of 0.3 ml/min. For ACh release, 10^-5 M hemicholinium-3 was added to the medium to prevent the uptake of choline formed during superfusion from phospholipids and released ACh, so that it could not be subsequently converted into newly synthesized ACh, which would be released in preference to the pre-formed, labeled ACh. The medium was delivered by a 25-channel peristaltic pump (Ismatec; Brinkman) and maintained at 37° C. by a thermostated stainless-steel heating coil before entering the superfusion column. Each column was provided with a four-way slider valve (Beckman Instruments) which allowed rapid change of low-to-high-K^+ -KR-medium and with two 10-channel, 3-way valves which were used to change form drug-free to drug-containing low- and high-K^+ -KR media.
After 15 min washout of non-specifically bound radioactivity during superfusion, the collection of fractions of 4 min (1.2 ml) each was started. After 3×4 min, the KR medium was changed to a KR medium with 25 mM KCl (ACh, 5-HT release) or 12.5 mM KCl (DA release) (high K^+ -KR medium; S1). Depolarization-induced stimulation of release by high-K^+ -KR medium was then substituted by drug- or vehicle-containing low- and high-K^+ -KR medium and superfusion continued for 3×4 min with low-K^+ -KR medium, for 1×4 min with high-K^+ -KR medium (S2), and for 2×4 min with low-K^+ -KR medium.
Compounds were added to the medium by 100-fold dilution of appropriate stock solutions (in 0.9% NaCl/H2 O) with either low- or high-K^+ -KR medium.
All superfusion fractions were collected in liquid scintillation counting vials.

[3] = receptor and ion channel ligands and neuropeptides against 10 nM tritiated DuP 996

Molecule	ability to displace tritiated DuP 996 binding from the binding protein (DuP 996 binding protein [1]; [3])	other results
C=CCN1CC[C@]23c4c5ccc(O)c4O[C@H]2C(=O)CC[C@@]3(O)[C@H]1C5 [naloxone]	None of these pharmacological standards was able to displace	–
COc1ccc(CCN(C)CCCC(C#N)(c2ccc(OC)c(OC)c2)C(C)C)cc1OC (stereo not drawn) [verapamil]	–	ability to displace tritiated DuP 996 binding from the binding protein (DuP 996 binding protein [1]): None of these pharmacological standards was able to displace
O=C1N(c2ccccc2)c2ccccc2C1(Cc1cnn(Cc2ccccc2)c1)Cc1cnn(Cc2ccccc2)c1 [Compound 27, 3,3-Bis[1-(phenylmethyl)-1H-pyrazol-4-ylmethyl]-1,3 dihydro-1-phenyl-2H-indol-2-one]	–	pIC50 (DuP 996 binding protein [2]): 3.00; ACh Release EC100 (ACh release): 1,300,000 nM
cholecystokinin	None of these pharmacological standards was able to displace	–
NCCCC(=O)O [GABA]	None of these pharmacological standards was able to displace	–
CN(C)CCC=C1c2ccccc2CCc2ccccc21 [amitriptyline]	None of these pharmacological standards was able to displace	–
C=C1c2cccc3cccc(c23)C1(Cc1ccncc1)Cc1ccncc1 [Compound 11, 4-[1,2-Dihydro-2-methyl-ene-1-(4-pyridinylmethyl)-1-acenaphthylen-1-yl-methyl]-pyridine]	–	pIC50 (DuP 996 binding protein [2]): 6.92; ACh Release EC100 (ACh release): 3,300 nM
C=CCN1CCC2(C)c3cc(O)ccc3CC1C2C (single isomer, unassigned; (+)) [(+)-SKF 10,047]	None of these pharmacological standards was able to displace	–
neurokinin B	None of these pharmacological standards was able to displace	–
Cn1c(=O)c2c(ncn2C)n(C)c1=O [caffeine]	None of these pharmacological standards was able to displace	–
ACTH 1-24: pharmacological standard	None of these pharmacological standards was able to displace	–
CN1C(=O)CN=C(c2ccccc2)c2cc(Cl)ccc21 [diazepam]	–	ability to displace tritiated DuP 996 binding from the binding protein (DuP 996 binding protein [1]): None of these pharmacological standards was able to displace
CN1CCCC1c1cccnc1 (stereo not drawn) [nicotine]	–	ability to displace tritiated DuP 996 binding from the binding protein (DuP 996 binding protein [1]): None of these pharmacological standards was able to displace
CC(N)Cc1ccccc1 (stereo not drawn) [amphetamine]	None of these pharmacological standards was able to displace	–
substance P	None of these pharmacological standards was able to displace	–
CN/C(=N/CCSCc1nc[nH]c1C)NC#N [cimetidine]	None of these pharmacological standards was able to displace	–
neurotensin 8-13	None of these pharmacological standards was able to displace	–
neurokinin A	None of these pharmacological standards was able to displace	–
LHRH: pharmacological standard	None of these pharmacological standards was able to displace	–

Molecule	ability to displace tritiated DuP 996 binding from the binding protein (DuP 996 binding protein [1]; [3])	other results
O=C(CCCN1CCC(O)(c2ccc(Cl)cc2)CC1)c1ccc(F)cc1 [haloperidol]	None of these pharmacological standards was able to displace	–
CN1CCN2c3ccccc3Cc3ccccc3C2C1 (stereo not drawn) [mianserin]	None of these pharmacological standards was able to displace	–
NC(=O)CN1CCCC1=O [piracetam]	None of these pharmacological standards was able to displace	–
veratidine	None of these pharmacological standards was able to displace	–
CN1[C@@H]2CC[C@H]1C[C@@H](OC(=O)C(CO)c1ccccc1)C2 (stereo partly drawn) [atropine]	–	ability to displace tritiated DuP 996 binding from the binding protein (DuP 996 binding protein [1]): None of these pharmacological standards was able to displace
RPPGFSPFR [bradykinin]	None of these pharmacological standards was able to displace	–
CN[C@H](CC(=O)O)C(=O)O [N-methyl-D-aspartic acid]	None of these pharmacological standards was able to displace	–
angiotensin III	None of these pharmacological standards was able to displace	–
c1ccc(C2(N3CCCCC3)CCCCC2)cc1 [phencyclidine]	None of these pharmacological standards was able to displace	–
CC(C)NCC(O)c1ccc(O)c(O)c1 (stereo not drawn) [isoproterenol]	None of these pharmacological standards was able to displace	–
3,4-aminopyridine	None of these pharmacological standards was able to displace	–
O=C1C[C@@H]2OCC=C3CN4CC[C@]56c7ccccc7N1[C@H]5[C@H]2[C@H]3C[C@H]46 [strychnine]	None of these pharmacological standards was able to displace	–
Nc1ncnc2c1ncn2[C@@H]1O[C@H](CO)[C@@H](O)[C@H]1O [adenosine]	None of these pharmacological standards was able to displace	–
C1CCc2nnnn2CC1 [pentylenetetrazol]	None of these pharmacological standards was able to displace	–
3,3-Bis(3-pyridinylmethyl)-1-phenyl-1H-indol-2(3H)one N-oxide [Compound 23]	–	ACh Release EC100 (ACh release): 100,000 nM
COc1ccc(CN(CCN(C)C)c2ccccn2)cc1 [pyrilamine]	None of these pharmacological standards was able to displace	–
NC[C@H](O)c1ccc(O)c(O)c1 [norepinephrine]	None of these pharmacological standards was able to displace	–
COC(=O)[C@@H]1[C@H]2C[C@H]3c4[nH]c5ccccc5c4CCN3C[C@@H]2CC[C@@H]1O [yohimbine]	None of these pharmacological standards was able to displace	–
